The values below are quoted from earlier work in US9517268B2, “Process for producing inorganic particulate material” (MERCK PATENT GMBH, priority 2011, dated 2016).

The conditions of the data set: pH 7.

Values after ≈ are worked out from the molar mass of the structure shown.

On to `CCC(C)n1ncn(-c2ccc(N3CCN(c4ccc(OCC5COC(Cn6cncn6)(c6ccc(Cl)cc6Cl)O5)cc4)CC3)cc2)c1=O` (stereo not shown) [Itraconazole], for which the “solubility in aqueous solutions” value is 1 ng/mL (≈ 1.42 nM).
